How the values were obtained:
[1] = Hydroxyapatite-targeting ability (binding to bone mineral); settings: 80 mg hydroxyapatite, 37°C, within 4 h
Procedure: The precipitates were dissolved with 10 ml of methanol prior to 5 min of sonication and 10 min of centrifugation at 12,000 rpm. Filtration of the supernatant was accomplished with a filtering membrane (0.22 μm). The concentration of AS in the supernatant was detected by HPLC. The adsorption ability of bone targets was calculated by the following equation ([Yuan et al., 2020]): A%=Ia/I0×100% (5) where A% represents the adsorption ability of bone targets. The Ia denotes the amount of AS absorbed by hydroxyapatite. The I0 denotes the weight of AS in initial bone targets.

ovariectomized rats = assay: Osteoporotic study in ovariectomized rats (femur micro-CT, BMD); assay type: in vivo, SD rats; settings: 0.5 mg/kg/2 days intravenous; for BMD (bone mineral density) / BV/TV / SMI (structure model index) / Tb.N / Tb.Sp / Tb.Th: femur of ovariectomized rats, n = 3; for increase of femur BMD compared to the OVX group: ovariectomized rats, treatment for 8 weeks
Procedure: Female SD rats were adopted for the osteoporotic study. […] All SD rats were anesthetized and bilaterally ovariectomized except those in the SHAM group, which underwent a sham operation. […] All SD rats were sacrificed, and their left femurs were collected. Detection of BMD was performed with a dual energy X-ray absorptiometric machine ([…] Microtomograph, Bruker, Belgium) ([Zhang et al., 2020]).

[2] = AS release in vitro, dialysis bag method; assay type: physicochemical; settings: in 48 h, PBS pH 7.4 with 0.5% Tween 80, 37 °C
Procedure: The experiment was conducted with an oscillating machine (ZRS-8G model, Tianjin Univ. Radio Factory, China) at a speed of 100 rpm and 37 °C. Withdrawal of dissolution medium for analysis was accordingly performed, while the same volume of fresh medium was added at preset time periods. Measurement of AS concentration for the calculation of the cumulative release ratio with HPLC was carried out. The release curve was drawn with the abscissa as time and the cumulative release ratio as the ordinate ([Weng et al., 2019]).

[3] = Pharmacokinetic parameters in the plasma; assay type: in vivo; settings: SD rats, 10 mg/kg, tail vein, n = 6
Procedure: In-house in vitro analysis of AS was performed with a Shimadzu high performance liquid chromatography (HPLC) machine ([…], Shimadzu-Japan) equipped with an ultraviolet detector and a Purospher® RP18 column (5 μm, 4.6 × 250 mm, Merck KGaA-Germany). […] For in vivo detection, the internal standard (IS) was a baicalein (20 μg/ml) solution, wherein ethyl acetate was employed to extract AS and IS from plasma ([Zhen et al., 2020]). […] Sampling of blood from the retro-orbital veins of rats at preset time intervals was performed after they had received the aforementioned dosage forms. To obtain serum, we stored the sampled blood for 30 min at 37°C prior to centrifugation at 3,700 rpm for 10 min. The following procedure has been depicted in Section 2.7. Based on observed values, we computed Cmax as the maximum AS concentration in plasma and Tmax as the time to attain Cmax. […] Estimation of oral relative biological availability (RBA) was carried out as follows ([Zhu et al., 2021]): […]

Structure (SMILES)	adsorption ability to hydroxyapatite (A%) ([1]; containing 1 mg AS)	adsorption ability to hydroxyapatite (A%) ([1]; containing 5 mg AS)	effect on osteoporosis in ovariectomized rats vs OVX group (ovariectomized rats; p < 0.05)	BMD (bone mineral density) (ovariectomized rats)	BV/TV (ovariectomized rats)	SMI (structure model index) (ovariectomized rats)	Tb.N (ovariectomized rats)	Tb.Sp (ovariectomized rats)	Tb.Th (ovariectomized rats)	increase of femur BMD compared to the OVX group (ovariectomized rats)	cumulative release rate [2]	AUCt [3]	Cmax [3]	MRT [3]	Tmax [3]	t1/2 [3]
CC(C)(O)[C@@H]1CC[C@](C)([C@H]2[C@@H](O)C[C@@]3(C)[C@@H]4C[C@H](O[C@@H]5O[C@H](CO)[C@@H](O)[C@H](O)[C@H]5O)[C@H]5C(C)(C)[C@@H](O[C@@H]6OC[C@@H](O)[C@H](O)[C@H]6O)CC[C@@]56C[C@@]46CC[C@]23C)O1 [AS, Astragaloside IV]	26.98%	28.83%	certain mitigative effect	0.064 ± 0.003	9.951 ± 0.100%	1.847 ± 0.032	1.441 ± 0.026	0.60 ± 0.018	0.076 ± 0.002 mm	12.9%	79.05%	12.912 µg·h/mL	14.32 µg/mL	82.14 min	4.98 min	33.5 min
C[C@]12CC[C@@H]3c4ccc(O)cc4CC[C@H]3[C@@H]1CC[C@@H]2O [ES, estradiol]				0.093 ± 0.003	12.91 ± 0.703%	1.793 ± 0.052	1.943 ± 0.063	0.48 ± 0.016	0.074 ± 0.002 mm	62.5%						
